In ChEMBL document CHEMBL1130499, “Synthesis of halogenated/nitrated flavone derivatives and evaluation of their affinity for the central benzodiazepine receptor” (Bioorg Med Chem Lett, 1997):

Each molecule was assayed against GABA-A receptor; anion channel (assay: Displacement of [3H]flunitrazepine binding from GABA-A central benzodiazepine receptor of rat cerebral cortical membrane).

Ki [nM] | SMILES
25 | O=c1cc(-c2cccc(Br)c2)oc2ccc([N+](=O)[O-])cc12
19 | O=c1cc(-c2cccc(Br)c2)oc2ccc(Br)cc12
413 | O=c1cc(-c2cccc(Br)c2)oc2ccccc12
275 | O=c1cc(-c2ccccc2)oc2ccc([N+](=O)[O-])cc12
75 | O=c1cc(-c2ccccc2)oc2ccc(Br)cc12 [6-BROMOFLAVONE]
> 20000 | O=c1cc(-c2ccc(Br)cc2)oc2ccccc12
164 | O=c1cc(-c2ccccc2)oc2ccc(Cl)cc12 [6-CHLOROFLAVONE]
285 | O=c1cc(-c2cccc([N+](=O)[O-])c2)oc2ccccc12
> 10000 | O=c1cc(-c2ccccc2[N+](=O)[O-])oc2ccc([N+](=O)[O-])cc12
> 20000 | O=c1cc(-c2cc([N+](=O)[O-])cc([N+](=O)[O-])c2)oc2ccccc12
4500 | O=c1cc(-c2ccccc2)oc2ccc(F)cc12
200 | O=c1cc(-c2ccc([N+](=O)[O-])cc2)oc2ccc(Br)cc12
> 20000 | O=c1c(Br)c(-c2cccc([N+](=O)[O-])c2)oc2ccccc12
8 | O=c1cc(-c2cccc([N+](=O)[O-])c2)oc2ccc(Cl)cc12
208 | O=c1cc(-c2ccccc2[N+](=O)[O-])oc2ccc(Br)cc12
1000 | O=c1cc(-c2ccccc2)oc2ccccc12 [FLAVONE]
> 20000 | O=c1cc(-c2ccccc2[N+](=O)[O-])oc2ccccc12
> 75000 | O=c1c(Br)c(-c2ccccc2)oc2ccccc12
614 | O=c1cc(-c2cccc(Cl)c2)oc2ccccc12
> 75000 | O=c1c(Br)c(-c2ccccc2)oc2ccc(Br)cc12
180 | O=c1cc(-c2cccc([N+](=O)[O-])c2)oc2ccc(F)cc12

SMILES | Ki [nM]
O=c1cc(-c2cccc([N+](=O)[O-])c2)oc2ccc([N+](=O)[O-])cc12 | 26
O=c1cc(-c2ccc([N+](=O)[O-])cc2)oc2ccc([N+](=O)[O-])cc12 | > 10000
